Results published in US10105357B2, “Indication of antibiotic drugs for preparation of cancer inhibition pharmaceutical composition” (LAUNX BIOMEDICAL CO., LTD., priority 2014, dated 2018).

Experiments:
[1] = system: HI650 (Lung Adenocarcinoma); test: Cell viability analysis, lung cancer HI650; type: cell-based, human; conditions: for cell viability (survival rate), H1650: drug 10 μM, 72 hours, WST-1, OD450 nm
[2] = system: A549 (Lung Adenocarcinoma); test: Cell viability analysis, lung cancer A549; type: cell-based, human; conditions: drug 10 μM, 72 hours, WST-1, OD450 nm
[3] = system: AGS (Gastric Adenocarcinoma); test: Cell viability analysis, gastric cancer AGS; type: cell-based, human; conditions: for cell viability (survival rate), AGS: drug 10 μM, 72 hours, WST-1, OD450 nm
[4] = system: MKN-45 (Gastric Adenocarcinoma); test: Cell viability analysis, gastric cancer MKN-45; type: cell-based, human; conditions: for cell viability (survival rate), MKN-45: drug 10 μM, 72 hours, WST-1, OD450 nm
[5] = system: HepG2 (Hepatocellular Carcinoma); test: Cell viability analysis, hepatic cancer HepG2; type: cell-based, human; conditions: for cell viability (survival rate), HepG2: drug 10 μM, 72 hours, WST-1, OD450 nm
[6] = system: LoVo (Colorectal Adenocarcinoma); test: Cell viability analysis, colon cancer LoVo; type: cell-based, human; conditions: drug 10 μM, 72 hours, WST-1, OD450 nm
[7] = system: A375 (Amelanotic Melanoma); test: Cell viability analysis, skin cancer A375; type: cell-based, human; conditions: for cell viability (survival rate), A375: drug 10 μM, 72 hours, WST-1, OD450 nm
[8] = system: HeLa (Cervix Adenocarcinoma); test: Cell viability analysis, cervical cancer HeLa; type: cell-based, human; conditions: for cell viability (survival rate), HeLa: drug 10 μM, 72 hours, WST-1, OD450 nm
[9] = system: PC3 (p53−) (Prostate Adenocarcinoma); test: Cell viability analysis, prostate cancer PC3; type: cell-based, human; conditions: for cell viability (survival rate), PC3: drug 10 μM, 72 hours, WST-1, OD450 nm
[10] = system: TSGH-8301 (Urinary Bladder Carcinoma); test: Cell viability analysis, bladder cancer TSGH-8301; type: cell-based, human; conditions: for cell viability (survival rate), TSGH: drug 10 μM, 72 hours, WST-1, OD450 nm
[11] = system: MCF7 (Mammary Gland, Adenocarcinoma); test: Cell viability analysis, breast cancer MCF7; type: cell-based, human; conditions: drug 10 μM, 72 hours, WST-1, OD450 nm
[12] = system: HL-60 (Acute Promyelocytic Leukemia); test: Cell viability analysis, leukemia HL-60; type: cell-based, human; conditions: drug 10 μM, 72 hours, WST-1, OD450 nm
[13] = system: HCT116 (p53+) (Colorectal Carcinoma)
[14] = system: cancer cell lines; test: Cell viability analysis (WST-1) on cancer cell lines; type: cell-based, human; conditions: drug 10 μM, 72 hours, WST-1; Table 3
[15] = system: BCC (basal cell carcinoma); test: Cell viability analysis, skin cancer BCC; type: cell-based, human; conditions: BCC; repeated experiment
[16] = system: BxPC-3; test: Cell viability analysis, pancreatic cancer BxPC-3; type: cell-based, human; conditions: BxPC-3; repeated experiment
[17] = system: AsPC-1; test: Cell viability analysis, pancreatic cancer AsPC-1; type: cell-based, human; conditions: AsPC-1; repeated experiment
[18] = system: SAS (Tongue squamous cell carcinoma); test: Cell viability analysis, tongue cancer SAS; type: cell-based, human; conditions: SAS; repeated experiment
[19] = system: U-2OS; test: Cell viability analysis, osteosarcoma U-2OS; type: cell-based, human; conditions: U2OS; repeated experiment

For `O=C([O-])C(O)[C@H](O)[C@@H](O)[C@H](O)[C@H](O)CO.O=C([O-])C(O)[C@H](O)[C@@H](O)[C@H](O)[C@H](O)CO.[Ca+2]` (stereo partly drawn) [Calcium Gluceptate], the “cell viability (survival rate), H1650” value [1] was 54.25, the “cell viability (survival rate), A549” value [2] was 24.91 and the “cell viability (survival rate), AGS” value [3] was 79.67. The “cell viability (survival rate), MKN-45” value [4] was 74.23, the “cell viability (survival rate), HepG2” value [5] was 76.88 and the “cell viability (survival rate), LoVo” value [6] was 55.29. The “cell viability (survival rate), A375” value [7] was 36.97, the “cell viability (survival rate), HeLa” value [8] was 43.93 and the “cell viability (survival rate), PC3” value [9] was 37.91. For the same compound, the “cell viability (survival rate), TSGH” value [10] was 33.81, the “cell viability (survival rate), MCF7” value [11] was 34.24 and the “cell viability (survival rate), HL-60” value [12] was 113.4525. The “cell viability (survival rate), HCT116” value ([13]; drug 10 μM, 72 hours, WST-1, OD450 nm, head HCT116 / HCT116(WT)) was 74.09.
With `CC1(C)S[C@@H]2[C@H](NC(=O)[C@H](N)c3ccc(O)cc3)C(=O)N2[C@H]1C(=O)[O-].[Na+]` [Amoxicillin sodium (Amox), Amoxicillin sodium] the “inhibition effect on different cancer cell lines” value [14] was “significant inhibition effect”, the “The results of antibiotic drug inhibiting cancer cell lines (cell viability analysis), H1650” value ([1]; H1650, repeated experiment) was 87.81 and the “cell viability (survival rate), H1650” value [1] was 43.3. The “cell viability (survival rate), A549” value [2] was 60.6, the “The results of antibiotic drug inhibiting cancer cell lines (cell viability analysis), AGS” value ([3]; AGS, repeated experiment) was 128.2 and the “cell viability (survival rate), AGS” value [3] was 51.2. For the same compound, the “The results of antibiotic drug inhibiting cancer cell lines (cell viability analysis), MKN-45” value ([4]; MKN-45, repeated experiment) was 110.7, the “cell viability (survival rate), MKN-45” value [4] was 63.2 and the “The results of antibiotic drug inhibiting cancer cell lines (cell viability analysis), HepG2” value ([5]; HepG2, repeated experiment) was 124.5. For the same compound, the “cell viability (survival rate), HepG2” value [5] was 80.8, the “cell viability (survival rate), LoVo” value [6] was 69.1 and the “The results of antibiotic drug inhibiting cancer cell lines (cell viability analysis), A375” value ([7]; A375, repeated experiment) was 115.9. The “cell viability (survival rate), A375” value [7] was 78.5, the “The results of antibiotic drug inhibiting cancer cell lines (cell viability analysis), BCC” value [15] was 115.1 and the “The results of antibiotic drug inhibiting cancer cell lines (cell viability analysis), HeLa” value ([8]; HeLa, repeated experiment) was 112.6. The “cell viability (survival rate), HeLa” value [8] was 81.0, the “The results of antibiotic drug inhibiting cancer cell lines (cell viability analysis), PC-3” value ([9]; PC-3, repeated experiment) was 127.2 and the “cell viability (survival rate), PC3” value [9] was 74.8. The “The results of antibiotic drug inhibiting cancer cell lines (cell viability analysis), TSGH-8301” value ([10]; TSGH-8301, repeated experiment) was 129.6, the “cell viability (survival rate), TSGH” value [10] was 45.4 and the “cell viability (survival rate), MCF7” value [11] was 60.4. The “The results of antibiotic drug inhibiting cancer cell lines (cell viability analysis), BxPC-3” value [16] was 71.08, the “The results of antibiotic drug inhibiting cancer cell lines (cell viability analysis), AsPC-1” value [17] was 88.13 and the “The results of antibiotic drug inhibiting cancer cell lines (cell viability analysis), SAS” value [18] was 66.94. The “The results of antibiotic drug inhibiting cancer cell lines (cell viability analysis), U2OS” value [19] was 65.21 and the viability [13] was 112%.
